pEC50: −log10 of the molar value.
Biological target: human TMEM16A (TMEM16Aabc variant) (Homo sapiens, UniProt Q5XXA6, DEL476-501, form not given)
Assay: Automated whole-cell patch clamp (Qpatch) TMEM16A potentiator assay in FRT cells stably expressing human TMEM16A
Format: cell-based
Settings: for % Potentiation @ 3.33 μM Avg: 3.33 μM solution of test compound, percentage increase of baseline TMEM16A current; for pEC50: calculated EC50, Qpatch TMEM16A current at +70 mV
Procedure, shortened: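 Potentiation was read as the rise in peak +70 mV current over baseline (%), from cumulative 5-min additions of compound. Recordings used whole-cell automated patch of FRT cells stably carrying human TMEM16Aabc, with pipette Ca2+ buffered to give ~20% maximal current. EC50 and efficacy came from concentration-response fits.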

human TMEM16A (TMEM16Aabc variant), sequence (Q5XXA6 with tags, fused parts or gaps DEL476-501): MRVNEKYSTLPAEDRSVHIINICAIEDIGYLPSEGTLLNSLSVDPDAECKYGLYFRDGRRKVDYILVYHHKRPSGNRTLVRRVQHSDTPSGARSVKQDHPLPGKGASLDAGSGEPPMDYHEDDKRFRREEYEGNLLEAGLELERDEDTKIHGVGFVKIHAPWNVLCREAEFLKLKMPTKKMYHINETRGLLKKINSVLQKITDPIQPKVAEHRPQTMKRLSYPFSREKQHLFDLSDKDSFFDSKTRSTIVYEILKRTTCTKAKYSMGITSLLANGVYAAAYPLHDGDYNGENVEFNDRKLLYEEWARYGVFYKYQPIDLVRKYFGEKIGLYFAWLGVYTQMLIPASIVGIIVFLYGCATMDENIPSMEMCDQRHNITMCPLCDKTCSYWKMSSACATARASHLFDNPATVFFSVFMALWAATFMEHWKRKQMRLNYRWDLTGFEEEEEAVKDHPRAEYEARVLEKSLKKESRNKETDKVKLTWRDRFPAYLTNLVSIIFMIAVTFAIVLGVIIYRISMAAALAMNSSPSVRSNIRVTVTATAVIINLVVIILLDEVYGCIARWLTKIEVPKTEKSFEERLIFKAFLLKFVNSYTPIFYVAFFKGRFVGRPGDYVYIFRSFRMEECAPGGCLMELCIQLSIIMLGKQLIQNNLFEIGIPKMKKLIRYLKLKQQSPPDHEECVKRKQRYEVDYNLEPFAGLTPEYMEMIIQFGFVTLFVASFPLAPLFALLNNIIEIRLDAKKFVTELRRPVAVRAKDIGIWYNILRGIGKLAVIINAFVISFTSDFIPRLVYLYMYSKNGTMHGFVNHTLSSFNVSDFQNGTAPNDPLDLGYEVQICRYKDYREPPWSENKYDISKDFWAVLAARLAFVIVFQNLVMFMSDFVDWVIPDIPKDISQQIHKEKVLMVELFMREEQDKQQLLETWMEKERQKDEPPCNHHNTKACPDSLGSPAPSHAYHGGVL

Structure (SMILES)	% Potentiation @ 3.33 μM Avg [%]	pEC50
CCCC(C)(C)NC(=O)c1cc(NC(=O)Cc2cc(Cl)ccc2O)ccn1 [Example 7.2, 4-[[2-(5-Chloro-2-hydroxy-phenyl)acetyl]amino]-N-(1,1-dimethylbutyl)pyridine-2-carboxamide]	203	6.59
N#CC1(NC(=O)c2cc(NC(=O)Cc3cc(Cl)ccc3O)ccn2)CCOC1 (stereo not drawn) [Example 47, 4-[[2-(5-Chloro-2-hydroxy-phenyl)acetyl]amino]-N-(3-cyanotetrahydrofuran-3-yl)pyridine-2-carboxamide]	237	6.74
CC(C)(C)c1ccc(O)c(CC(=O)Nc2ccnc(C(=O)NC3(C#N)CCC3)c2)c1 [Example 3.5a, 4-[[2-(5-tert-Butyl-2-hydroxy-phenyl)acetyl]amino]-N-(1-cyanocyclobutyl)pyridine-2-carboxamide]	311	6.30
COc1ccc(Cl)cc1CC(=O)Nc1cc(C(=O)NC(C)(C)C)ncn1 [Example 82, N-tert-Butyl-6-[[2-(5-chloro-2-methoxy-phenyl)acetyl]amino]pyrimidine-4-carboxamide]	88	6.14
CC(C)(C)NC(=O)c1cc(NC(=O)CC2C3CC4CC(C3)CC2C4)ccn1 (stereo not drawn) [Example 5.1, 4-[[2-(2-Adamantyl)acetyl]amino]-N-tert-butyl-pyridine-2-carboxamide]	140	6.06
CC(C)(C)NC(=O)c1cccc(NC(=O)CCc2ccccc2O)c1 [Example 2.5, N-tert-Butyl-3-[3-(2-hydroxyphenyl)propanamido]benzamide]	51	5.87
N#CC1(NC(=O)c2cccc(NC(=O)Cc3cc(Cl)ccc3O)c2)CCOC1 (stereo not drawn) [Example 71, 3-[[2-(5-Chloro-2-hydroxy-phenyl)acetyl]amino]-N-(3-cyanotetrahydrofuran-3-yl)benzamide]	162	–
CC(C)(C)NC(=O)c1cc(NC(=O)C2CCc3ccc(O)cc32)ccn1 (stereo not drawn) [Example 3.9b, N-tert-Butyl-4-[(6-hydroxyindane-1-carbonyl)amino]pyridine-2-carboxamide]	144	6.02
CC(C)(C)NC(=O)c1cc(NC(=O)Cc2cc(-c3ccccc3)ccc2O)ccn1 [Example 26, N-tert-Butyl-4-[[2-(2-hydroxy-5-phenyl-phenyl)acetyl]amino]pyridine-2-carboxamide]	108	–
CC(C)(C)NC(=O)c1cc(NC(=O)Cc2ccccc2OC(F)F)ccn1 [Example 23.4, N-tert-Butyl-4-[[2-[2-(difluoromethoxy)phenyl]acetyl]amino]pyridine-2-carboxamide]	115	–
CC1(O)CCC(NC(=O)c2cc(NC(=O)Cc3cc(Cl)ccc3O)ccn2)CC1 (stereo not drawn) [Example 35.1, 4-[[2-(5-Chloro-2-hydroxy-phenyl)acetyl]amino]-N-(4-hydroxy-4-methyl-cyclohexyl) pyridine-2-carboxamide]	51	–
O=C(Cc1cc(Cl)ccc1O)Nc1ccnc(C(=O)N[C@H]2CCC[C@@H]2O)c1 [Example 35.17, 4-[[2-(5-Chloro-2-hydroxy-phenyl)acetyl]amino]-N-[(1S,2S)-2-hydroxycyclopentyl]pyridine-2-carboxamide]	153	6.82
CC(C)(C)NC(=O)c1cc(NC(=O)Cc2ccc(C(F)(F)F)cc2O)ccn1 [Example 3.7b, N-tert-Butyl-4-[[2-[2-hydroxy-4-(trifluoromethyl)phenyl]acetyl]amino]pyridine-2-carboxamide]	160	6.74
CC(C)(C)NC(=O)c1cc(NC(=O)Cc2c(O)cccc2Cl)ccn1 [Example 3.3a, N-tert-Butyl-4-[[2-(2-chloro-6-hydroxy-phenyl)acetyl]amino]pyridine-2-carboxamide]	91	7.15
CC(C)(C)NC(=O)c1cccc(NC(=O)Cc2cc(Br)ccc2O)c1 [Example 2.10, 3-[[2-(5-Bromo-2-hydroxy-phenyl)acetyl]amino]-N-tert-butyl-benzamide]	133	6.34
CC(C)(C)NC(=O)c1cc(NC(=O)Cc2cccc(F)c2)ccn1 [Example 5.9, N-tert-Butyl-4-[[2-(3-fluorophenyl)acetyl]amino]pyridine-2-carboxamide]	126	5.95
CC1(NC(=O)c2cc(NC(=O)Cc3cc(Cl)ccc3O)ccn2)CC1 [Example 35.8, 4-[[2-(5-Chloro-2-hydroxy-phenyl)acetyl]amino]-N-(1-methylcyclopropyl)pyridine-2-carboxamide]	250	6.74

Structure (SMILES)	% Potentiation @ 3.33 μM Avg [%]	pEC50
CC(C)(C)NC(=O)c1cc(NC(=O)Cc2ccccc2C2CC2)ccn1 [Example 58, N-tert-Butyl-4-[[2-(2-cyclopropylphenyl)acetyl]amino]pyridine-2-carboxamide]	217	–
CC(C)(C)NC(=O)c1cccc(NC(=O)Cc2cc(F)ccc2O)c1 [Example 2.1, N-tert-Butyl-3-[[2-(5-fluoro-2-hydroxy-phenyl)acetyl]amino]benzamide]	216	6.31
COc1cccc(CC(=O)Nc2cccc(C(=O)NC(C)(C)C)c2)c1O [Example 2.8, N-tert-Butyl-3-[[2-(2-hydroxy-3-methoxy-phenyl)acetyl]amino] benzamide]	74	5.34
N#CC1(NC(=O)c2cccc(NC(=O)Cc3cc(F)ccc3O)c2)CCOCC1 [Example 41, N-(4-Cyanotetrahydropyran-4-yl)-3-[[2-(5-fluoro-2-hydroxy-phenyl)acetyl]amino] benzamide]	38	–
CC(C)(C)NC(=O)c1cc(NC(=O)NCc2cccc(O)c2)ccn1 [Example 65.3, N-tert-Butyl-4-[(3-hydroxyphenyl)methylcarbamoylamino]pyridine-2-carboxamide]	33	–
O=C(Cc1cc(Cl)ccc1O)Nc1ccnc(C(=O)N[C@H]2CC[C@@H](O)CC2)c1 [Example 7.12, 4-[2-(5-Chloro-2-hydroxyphenyl)acetamido]-N-[(1s,4s)-4-hydroxycyclohexyl]pyridine-2-carboxamide]	101	5.68
O=C(Cc1cc(Cl)ccc1O)Nc1cccc(C(=O)NC2CCCCC2)c1 [Example 7.3, 3-[[2-(5-Chloro-2-hydroxy-phenyl)acetyl]amino]-N-cyclohexyl-benzamide]	125	6.70
CC(C)(C)NC(=O)c1cc(NC(=O)C2COc3ccccc32)ccn1 (stereo not drawn) [Example 5.25, N-tert-Butyl-4-(2,3-dihydrobenzofuran-3-carbonylamino)pyridine-2-carboxamide]	67	–
CC(C)(C)NC(=O)c1cccc(NC(=O)Cc2cccc(O)c2O)c1 [Example 2.16, N-tert-Butyl-3-[[2-(2,3-dihydroxyphenyl)acetyl]amino]benzamide]	60	5.37
C#CC(C)(C)NC(=O)c1cc(NC(=O)Cc2c(C)nn(C(C)C)c2C)ccn1 [Example 79.1, N-(1,1-Dimethylprop-2-ynyl)-4-[[2-(1-isopropyl-3,5-dimethyl-pyrazol-4-yl)acetyl]amino]pyridine-2-carboxamide]	45	–
CC(C)(C)c1ccc(CC(=O)Nc2ccnc(C(=O)N[C@H]3CCCC[C@@H]3O)c2)cc1O [Example 93.1, 4-[2-(4-tert-butyl-3-hydroxyphenyl)acetamido]-N-[(1S,2S)-2-hydroxycyclohexyl]pyridine-2-carboxamide]	207	7.30
CC1(CC(=O)Nc2ccnc(C(=O)NC(C)(C)C#N)c2)CCCCC1 [Example 83.7, N-(1-Cyano-1-methyl-ethyl)-4-[[2-(1-methylcyclohexyl)acetyl]amino]pyridine-2-carboxamide]	147	–
COCC(C#N)(COC)NC(=O)c1cc(NC(=O)Cc2cc(Cl)ccc2O)ccn1 [Example 86, 4-[[2-(5-Chloro-2-hydroxy-phenyl)acetyl]amino]-N-[1-cyano-2-methoxy-1-(methoxymethyl)ethyl]pyridine-2-carboxamide]	593	6.46
CC(C)(C)NC(=O)c1cc(NC(=O)Cc2ccc3nccnc3c2)ccn1 [Example 5.23, N-tert-Butyl-4-[(2-quinoxalin-6-ylacetyl)amino]pyridine-2-carboxamide]	144	5.92
O=C(Cc1cc(Cl)ccc1O)Nc1ccnc(C(=O)N[C@H]2CCCC[C@@H]2O)c1 (single isomer, unassigned) [Example 31.3a, 4-[[2-(5-Chloro-2-hydroxy-phenyl)acetyl]amino]-N-[(1S,2S)-2-hydroxycyclohexyl]pyridine-2-carboxamide or 4-[[2-(5-Chloro-2-hydroxy-phenyl)acetyl]amino]-N-[(1R,2R)-2-hydroxycyclohexyl]pyridine-2-carboxamide]	238	6.26
CC(C)(C)NC(=O)c1cc(NC(=O)[C@@H]2CCc3ccccc32)ccn1 (single isomer, unassigned) [Example 21a, N-tert-Butyl-4-[[(1R)-indane-1-carbonyl]amino]pyridine-2-carboxamide or N-tert-Butyl-4-[[(1S)-indane-1-carbonyl]amino]pyridine-2-carboxamide]	99	5.80
CC(C)(C#N)NC(=O)c1cc(NC(=O)c2ccc3c(c2)OCC(=O)N3)ccn1 [Example 83.17, N-[2-[(1-Cyano-1-methyl-ethyl)carbamoyl]-4-pyridyl]-3-oxo-4H-1,4-benzoxazine-7-carboxamide]	8	–

Reference: US20200361871A1 (Enterprise Therapeutics Ltd., priority 2018, published 2020)
